Reference: PubChem BioAssay (NCI)
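Protocol summary: plate cells (96-well), add compound at 5 concentrations, incubate 48 h, interpolate endpoints linearly. The concentration for 50% growth inhibition is given as GI50. TGI: total growth inhibition.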

How the values were obtained:
Experiment in all cases: inhibition of tumour cell growth, NCI panel, 48 h
UACC-257 melanoma = test system: UACC-257 melanoma
SK-MEL-5 melanoma = test system: SK-MEL-5 melanoma
SW-620 colon = test system: SW-620 colon
SNB-19 CNS = test system: SNB-19 CNS
IGROV1 ovarian = test system: IGROV1 ovarian
ACHN renal = test system: ACHN renal
A498 renal = test system: A498 renal
SK-MEL-2 melanoma = test system: SK-MEL-2 melanoma
OVCAR-4 ovarian = test system: OVCAR-4 ovarian
HCT-116 colon = test system: HCT-116 colon

| SMILES | GI50 (UACC-257 melanoma) [µM] | TGI (UACC-257 melanoma) [µM] | GI50 (SK-MEL-5 melanoma) [µM] | TGI (SK-MEL-5 melanoma) [µM] | GI50 (SW-620 colon) [µM] | TGI (SW-620 colon) [µM] | GI50 (SNB-19 CNS) [µM] | TGI (SNB-19 CNS) [µM] | GI50 (IGROV1 ovarian) [µM] | TGI (IGROV1 ovarian) [µM] | GI50 (ACHN renal) [µM] | TGI (ACHN renal) [µM] | GI50 (A498 renal) [µM] | TGI (A498 renal) [µM] | GI50 (SK-MEL-2 melanoma) [µM] | TGI (SK-MEL-2 melanoma) [µM] | GI50 (OVCAR-4 ovarian) [µM] | TGI (OVCAR-4 ovarian) [µM] | TGI (HCT-116 colon) [µM] | GI50 (HCT-116 colon) [µM] |
| --- | --- | --- | --- | --- | --- | --- | --- | --- | --- | --- | --- | --- | --- | --- | --- | --- | --- | --- | --- | --- |
| COc1cc(CNc2ccccc2C(=O)N2CCN(C(=O)c3cc(-c4cc(OC)c(OC)c(OC)c4)n4nc(-c5ccccc5)cc4n3)CC2)cc(OC)c1OC | 4.97 | > 100 | 1.58 | 3.91 | 3.67 | > 100 | 6.73 | > 100 | 7.73 | > 100 | 4.24 | > 100 | 2.15 | 20.8 | 4.37 | > 100 | 4.37 | > 100 |  |  |
| CC1=NN(C(=O)c2ccc([N+](=O)[O-])cc2)C(=O)C1N=Nc1ccccc1C(=O)O (stereo not drawn) |  | > 100 |  | > 100 |  | > 100 |  | > 100 |  | > 100 |  | > 100 |  | > 100 |  | > 100 |  |  | > 100 |  |
| N#CC1=C(N)NC(N2CCOCC2)=NC12Nc1ccccc1N2 | 22.9 | 49.1 | 15 | 32 | 26.7 | > 100 | 40 | > 100 | 2.15 | 23.8 | 33.3 | > 100 |  |  | 20.1 | 47.4 | > 100 | > 100 | > 100 | 16 |
| COc1ccc(/C=N\Nc2ccc([N+](=O)[O-])cn2)cc1OC | > 100 | > 100 | > 100 | > 100 | > 100 | > 100 | 27 | > 100 |  |  |  |  | 3.43 | 59.6 | > 100 | > 100 |  |  |  |  |
| CCCCCCCCCCCCCCCCCC(=O)OCC(COC(=O)CCCN)OC(=O)CCCN (stereo not drawn) |  | 34.4 |  |  |  | 38.2 |  | 48 |  | 8.01 |  | > 100 |  |  |  |  |  | 40.9 | 40.1 |  |
| C/C=C/CC(C)[C@@H](O)[C@H](NC)C(=O)O (stereo partly drawn) |  | > 100 |  | > 100 |  | > 100 |  | > 100 |  | > 100 |  | > 100 |  |  |  | > 100 |  | > 100 |  |  |
| Cc1cc(C)c(Cn2cnc3c(Cl)ncnc32)c(C)c1CCl |  |  | > 100 | > 100 | 92.7 | > 100 | > 100 | > 100 | > 100 | > 100 | 0.233 | 14.1 | > 100 | > 100 | > 100 | > 100 |  |  | > 100 | 68.8 |
| SCCSCCCSCCS |  | > 100 |  | > 100 |  | > 100 |  | > 100 |  | > 100 |  |  |  |  |  |  |  | 98.2 | > 100 |  |
| Cc1cc(=O)oc2c(C)c(OCCCOc3ccc4c(C)cc(=O)oc4c3C)ccc12 |  | > 100 |  | > 100 |  | > 100 |  | > 100 |  | > 100 |  |  |  | > 100 |  | > 100 |  |  | > 100 |  |
